Results published in patent US5607967A, “Treatment of alzheimer's disease with 5-(tetradecyloxy)-2-furan carboxylic acid” (Merck & Co., Inc., priority 1994, dated 1997).

What was measured:
[1] = tested on: Dopamine D1 receptor antagonist (SCH 23390) induced catalepsy; experiment: SCH 23390 induced catalepsy (Bar method); type: in vivo, rat; details: carrier pretreatment, 24 h later 0.5 mg/kg SCH23390
Protocol: Rats were pretreated with 0.4 mg/kg TOFA or with carrier (S.C.). Twenty-four hours later, the rats were challenged with 0.5 mg/kg SCH23390, a Dopamine D1 antagonist, and the duration of catalepsy was monitored.
(§1) Catalepsy was determined by a modification of the Bar method (Undie and Friedman, 1988). A steel bar, 1.1 cm in diameter and 50 cm long, was suspended at a height of 10 cm above the working surface. Three sides of the bench around the bar were walled off with brown cardboard, and the linings on the bench surface were selected to be of the same color with the cardboard walls. The animal's hind limbs were freely placed on the bench, the fail laid out to the back, and the forelimbs placed over the bar. The length of time a rat stayed up on the bar was noted up to a preset cut-off point of 120 s. The time was counted off upon observing any of the following actions: (1) the animal came off, placing its two forepaws on the bench, (2) the animal climbed onto or over the bar with both hind limbs, (3) the animal initiated locomotion along or around the bar. Subsequently, time readings were translated into scores by awarding a score of 1 for each successfully completed 5 s on the bar. For each observation time, catalepsy scores were averaged for all the animals in a group to give the Mean Score of the group at that observation time. Further, the scores for each animal at all the observation times were added to give the total score for that animal. The mean of this last group of numbers was called the Mean Total Score of the group.
(§2) Catalepsy scores were analyzed by computer in accordance with the statistical procedures outlined by Winer, B. J.: Statistical principles in experimental design. McGraw-Hill, New York, pp. 10-428, 1971. Generally, for a given set of comparisons, observations were subjected to an appropriate analysis of variance followed by two-tailed Dunnett or Student's t-tests to detect differences between treatment groups.

GR/NER chimeric receptor = experiment: Activation of GR/NER in CV1 cells (luciferase); details: for Fold of stimulation GR/NER, Control: without dopamine
Protocol: The ligand dependent transcription assays were performed as described in Example 4, using CV1 cells in place of COS cells. The transfected CV1 cells were treated with dopamine, TOFA, or with a combination of TOFA and dopamine at the indicated concentrations and tested for luciferase activity.
CV1 cells were co-transfected with the MMTV-Luciferase reporter gene (pJA358) and the GR/NER chimeric receptor as described in Example 4. The cells were treated with increasing amount of the dopamine D1 receptor antagonist SCH 23390 with or without 50 μM […] dopamine.

[2] = chronic treatment, medial cholinergic pathway lesions; cited from earlier work
[3] = biological target: T1, GR/PPAR chimeric receptor (Mus musculus, UniProt P23204); experiment: Ligand dependent transcription assay, GR/PPAR chimeric receptor with MMTV-luciferase reporter; type: cell-based
T1 construct: COS cells, MMTV-luciferase
T1 sequence (P23204 1-468): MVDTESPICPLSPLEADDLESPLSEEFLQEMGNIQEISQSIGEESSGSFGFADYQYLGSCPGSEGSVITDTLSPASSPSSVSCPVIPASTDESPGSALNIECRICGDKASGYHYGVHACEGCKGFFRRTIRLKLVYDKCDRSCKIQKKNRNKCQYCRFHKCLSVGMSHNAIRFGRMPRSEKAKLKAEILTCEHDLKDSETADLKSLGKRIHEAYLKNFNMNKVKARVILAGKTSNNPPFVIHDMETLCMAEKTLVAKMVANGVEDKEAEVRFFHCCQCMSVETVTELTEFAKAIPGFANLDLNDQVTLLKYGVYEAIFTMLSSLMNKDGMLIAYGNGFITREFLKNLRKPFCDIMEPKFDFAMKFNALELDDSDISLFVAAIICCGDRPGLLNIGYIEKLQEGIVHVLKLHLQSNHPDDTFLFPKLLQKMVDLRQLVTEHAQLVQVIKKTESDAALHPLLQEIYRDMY
T1 sequence (P06537 1-792 partner): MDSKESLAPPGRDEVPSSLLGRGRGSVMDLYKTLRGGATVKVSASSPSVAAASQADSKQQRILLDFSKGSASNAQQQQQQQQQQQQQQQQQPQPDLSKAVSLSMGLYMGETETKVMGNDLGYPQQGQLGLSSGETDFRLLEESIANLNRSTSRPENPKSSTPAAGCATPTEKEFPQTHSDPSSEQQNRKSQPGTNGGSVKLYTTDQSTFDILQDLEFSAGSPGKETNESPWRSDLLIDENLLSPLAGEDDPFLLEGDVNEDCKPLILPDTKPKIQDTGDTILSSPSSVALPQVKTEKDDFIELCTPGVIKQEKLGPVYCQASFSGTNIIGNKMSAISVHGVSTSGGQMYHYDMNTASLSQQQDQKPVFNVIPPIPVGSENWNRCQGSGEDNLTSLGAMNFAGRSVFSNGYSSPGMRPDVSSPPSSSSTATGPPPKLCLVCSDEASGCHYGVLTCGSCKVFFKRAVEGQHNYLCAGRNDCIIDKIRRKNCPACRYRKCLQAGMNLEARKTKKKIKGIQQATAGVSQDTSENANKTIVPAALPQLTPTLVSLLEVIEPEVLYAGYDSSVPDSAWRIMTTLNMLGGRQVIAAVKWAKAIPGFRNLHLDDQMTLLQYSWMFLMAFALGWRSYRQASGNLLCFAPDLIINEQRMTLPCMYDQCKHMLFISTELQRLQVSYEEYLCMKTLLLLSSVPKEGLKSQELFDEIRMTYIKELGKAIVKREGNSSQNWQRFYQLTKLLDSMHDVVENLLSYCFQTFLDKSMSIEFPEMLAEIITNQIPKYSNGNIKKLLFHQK
Protocol: Similar hybrid receptors GR/NER, GR/NUC and GR/PPAR, in identical expression plasmid backgrounds were prepared essentially as described for the construction of the GR/mPPAR and GR/NUC chimeric receptors in Schmidt et al., "Identification of a new member of the steroid hormone receptor superfamily that is activated by a peroxisome proliferator and fatty acids," Mol. Endocrinol., 6(10):1634-41, 1992, and in Boie et al., "Enantioselective activation of the peroxisome proliferator-activated receptor", J. Biol. Chem. 268(8):5530-4, 1993.
Briefly, the amino terminal portion of the mouse glucocorticoid receptor (mGR), that includes the DNA binding domain was fused to the putative ligand binding domains of the nuclear receptor NER, hNUC-I (Schmidt et al., 1992), mPPAR (Issenmann and Green, 1990) to form the respective chimeric receptors GR/NER, GR/NUC and GR/PPAR. The GR/NER chimeric receptor was constructed as described for the GR/NUC and GR/PPAR hybrid receptors (Schmidt et al., 1992; Boie et al). The cDNA sequences coding for amino acids Arg^155 and Glu^156 of the NER receptor were converted to the Xho I restriction site, that was later used for the ligation to the GR cDNA sequences that coded for the DNA binding domain. Thus, converting amino acid residues Arg^155 and Glu^156 of NER receptor to amino acid residues Ser^155 and His^156.
The ligand transcription assay mediated by GR/PPAR in COS cells was performed as described in Example 4. The cells were treated with TOFA and Cerulenin at 0.1, 1, 10 and 100 μM.

[4] = Toxicity to transfected COS cells in the transcription assay; type: cell-based; details: monkey, GR/PPAR transcription assay, read-out: Concentrations toxic to the cells
Protocol: The ligand transcription assay mediated by GR/PPAR in COS cells was performed as described in Example 4. The cells were treated with TOFA and Cerulenin at 0.1, 1, 10 and 100 μM. Concentrations of cerulenin above 10 μM were toxic to the cells.

[5] = tested on: Muscarinic receptor agonist (Pilocarpine) induced catalepsy; experiment: Pilocarpine induced catalepsy (Bar method); type: in vivo, rat; details: carrier pretreatment, 24 h later 16 mg/kg Pilocarpine
Protocol: as §1, §2
Rats were pretreated with 0.4 mg/kg TOFA or with carrier (S.C.). Twenty-four hours later, the rats were challenged with 16 mg/kg Pilocarpine, an agonist of the muscarinic cholinergic receptor, and the duration of catalepsy was monitored as described in Example 10.

CN1CCc2cc(Cl)c(O)cc2C(c2ccccc2)C1 (single isomer, unassigned) [SCH-23390, 8-chloro-2,3,4,5-tetrahydro-3-methyl-5-phenyl-1H-3-benzazepin-7-ol hemimaleate]
Catalepsy Duration [1]: 3.1 ± 1.3 s | Effect on transcription mediated by GR/NER in CV1 cells (GR/NER chimeric receptor): stimulated the transcription | Effect on inhibition of luciferase expression caused by dopamine (GR/NER chimeric receptor; 50 μM dopamine): can reverse the inhibition of luciferase expression | Fold of stimulation GR/NER, Dopamine (50 μM) (GR/NER chimeric receptor; SCH-23390 0.1 μM with 50 μM dopamine): 0.59 ± 0.06 fold | Fold of stimulation GR/NER, Control (GR/NER chimeric receptor; SCH-23390 0.1 μM): 1.32 ± 0.15 fold | Fold of stimulation GR/NER, Dopamine (50 μM) (GR/NER chimeric receptor; SCH-23390 1.0 μM with 50 μM dopamine): 0.55 ± 0.09 fold | Fold of stimulation GR/NER, Control (GR/NER chimeric receptor; SCH-23390 1.0 μM): 1.22 ± 0.11 fold | Fold of stimulation GR/NER, Dopamine (50 μM) (GR/NER chimeric receptor; SCH-23390 10.0 μM with 50 μM dopamine): 0.83 ± 0.12 fold | Fold of stimulation GR/NER, Control (GR/NER chimeric receptor; SCH-23390 10.0 μM): 1.64 ± 0.38 fold | Fold of stimulation GR/NER, Dopamine (50 μM) (GR/NER chimeric receptor; SCH-23390 100 μM with 50 μM dopamine): 2.61 ± 0.86 fold | Fold of stimulation GR/NER, Control (GR/NER chimeric receptor; SCH-23390 100 μM): 2.38 ± 0.19 fold | Radial-arm maze performance [2]: reversed the lesion-induced impaired performance

C/C=C/C/C=C/CCC(=O)[C@H]1O[C@H]1C(N)=O [Cerulenin, cerulenin, reference compound]
Expression mediated by GR/PPAR [3]: did not stimulate transcription | fold induction at 0.1 µM ([3]; 0.1 μM, COS cells, Table 2, read-out: Fold of stimulation GR/PPAR): 1.03 ± 0.12 | fold induction at 1 µM ([3]; 1.0 μM, COS cells, Table 2, read-out: Fold of stimulation GR/PPAR): 1.13 ± 0.05 | fold induction at 10 µM ([3]; 10.0 μM, COS cells, Table 2, read-out: Fold of stimulation GR/PPAR): 0.58 ± 0.11 | MCC [4]: > 10 µM

CC[C@@H]1C(=O)OC[C@@H]1Cc1cncn1C [Pilocarpine, pilocarpine, reference compound]
Catalepsy Duration [5]: 27.3 ± 3.6 s
